Laboratory results taken from PubChem BioAssay (NCI).
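A five-concentration, 48-hour dose response in 96-well plates underlies each endpoint, interpolated linearly between surrounding concentrations. Here, GI50 denotes the concentration required for 50% inhibition of growth. TGI marks complete inhibition of growth.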

Legend:
Test in all cases: NCI tumour cell line growth inhibition, 48 h
[1] = test system: OVCAR-8 ovarian
[2] = test system: MOLT-4 leukemia
[3] = test system: NCI/ADR-RES ovarian
[4] = test system: OVCAR-5 ovarian
[5] = test system: COLO 205 colon
[6] = test system: SK-OV-3 ovarian
[7] = test system: UO-31 renal
[8] = test system: CCRF-CEM leukemia
[9] = test system: HOP-18 NSCLC
[10] = test system: DLD-1 colon

Structure (SMILES) | GI50 [1] [µM] | TGI [1] [µM] | GI50 [2] [µM] | TGI [2] [µM] | GI50 [3] [µM] | TGI [3] [µM] | GI50 [4] [µM] | TGI [4] [µM] | GI50 [5] [µM] | TGI [5] [µM] | GI50 [6] [µM] | TGI [6] [µM] | GI50 [7] [µM] | TGI [7] [µM] | GI50 [8] [µM] | TGI [8] [µM] | TGI [9] [µM] | TGI [10] [µM]
COc1ccc2c(c1)C(=Nc1ccc(F)c(Cl)c1)c1c-2c(Nc2ccc(F)c(Cl)c2)nc2ccccc12 | 22.6 | > 58.5 | 21.2 | 41.3 | 29.6 | > 72.9 | > 76.6 | > 100 | > 100 | > 100 | 18.8 | 98.6 | > 100 | > 100 | 0.804 | 3.99 |  | 
Cc1nc2sc(C(=O)Nc3cccc(Br)c3C)c(N)c2cc1C(O)c1ccccc1 (stereo not drawn) | 0.0487 | > 100 | 0.0556 | > 100 | 0.032 | 12.8 | 0.061 | > 60.2 | 0.0464 | 1.07 | 0.0609 | 75.8 | 0.0643 | 12.5 | 0.0406 | > 100 |  | 
CCC12C=CCN(CCc3c([nH]c4ccccc34)/C=C\1)C2 (stereo not drawn) |  |  |  | > 100 |  |  |  |  |  | > 100 |  |  |  | > 100 |  | > 100 | > 100 | 
COC(=O)C1C(C(=O)O)C2(c3ccccc3)C(=O)C1(c1ccccc1)C(c1ccccc1)=C2c1ccccc1 (stereo not drawn) | 18.8 | 35.9 | 14.5 | 36 | 18.4 | 34 | 19.3 | 35.3 | 18.8 | 39.3 | 18.3 | 36.6 | 17.9 | 36 | 11.7 | 33.6 |  | 
O=C1/C(=C\c2ccc(F)cc2)CN(C(=O)c2ccccc2F)C/C1=C\c1ccc(F)cc1 | 1.72 | 5.14 | 1.72 | 7.49 | 2.8 | 16.4 | 1.88 | 4.04 | 1.86 | 3.54 | 2.23 | 4.69 | 1.49 | 2.94 | 0.736 | 4.97 |  | 
CC(=Nc1ccc(N(C)C)cc1)c1ccccc1 |  | > 100 |  | 72.1 |  | 68.4 |  | > 100 |  | 34.9 |  | > 100 |  | 40.7 |  | 92.6 |  | 
CN1CCC2(CC1)N=C(SCC(=O)Nc1cnc3ccccc3c1)C(c1ccc(Br)cc1)=N2 | 2.33 | 5.54 | 1.93 | 4.37 | 2.27 | 5.76 | 2.43 | 7.33 | 1.64 | 3.35 | 4.25 | 15.9 | 1.37 | 2.68 | 2.21 | 5.31 |  | 
COC(=O)c1c(O)ccc(O)c1C(C(C)=O)C(C)=O |  | > 100 |  | > 100 |  |  |  |  |  | > 100 |  | > 100 |  | > 100 |  | > 100 |  | > 100
CC(C)(C)[Si](C)(C)OCC1OC(n2cnc3c(=O)[nH]cnc32)CC1O (stereo not drawn) |  | > 100 |  | > 100 |  | > 100 |  | > 100 |  | > 100 |  | > 100 |  | > 100 |  | > 100 |  | 
